Reference: ChEMBL document CHEMBL1201862, “PubChem BioAssay data set” (2004)
The source made the active and inactive calls.

Assays:
[1] = test system: H9c2; assay: cells; assay type: functional, cell-based; conditions: Rattus norvegicus, H9c2, Myocardium;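 further: confirmatory concentration-response retest of ultra-high-throughput screening hits for modulation of myocardial damage; cell death induced by hydrogen peroxide oxidative stress; compound pretreatment for 60 min then peroxide exposure for 2 h; potency is for protecting the cells against peroxide damage rather than for killing them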
[2] = inhibitors of SNCA 5'UTR-driven reporter translation, confirmation, H4 neuroglioma cells, luminescence (AID 1988); assay type: functional, cell-based
[3] = target: T1, Heat shock factor protein 1 (Mus musculus, UniProt P38532); assay: inhibition of MG132-induced HSE-luciferase signal, confirmation, cell-based, NIH3T3, luminescence, dose retest (AID 2382); assay type: functional;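 further: NIH3T3 fibroblasts with HSF1-driven luciferase reporter stressed by proteasome inhibitor MG132; luminescence from HSF1-driven luciferase expression after 8 hours of MG132 stress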
T1 sequence (P38532 whole entry): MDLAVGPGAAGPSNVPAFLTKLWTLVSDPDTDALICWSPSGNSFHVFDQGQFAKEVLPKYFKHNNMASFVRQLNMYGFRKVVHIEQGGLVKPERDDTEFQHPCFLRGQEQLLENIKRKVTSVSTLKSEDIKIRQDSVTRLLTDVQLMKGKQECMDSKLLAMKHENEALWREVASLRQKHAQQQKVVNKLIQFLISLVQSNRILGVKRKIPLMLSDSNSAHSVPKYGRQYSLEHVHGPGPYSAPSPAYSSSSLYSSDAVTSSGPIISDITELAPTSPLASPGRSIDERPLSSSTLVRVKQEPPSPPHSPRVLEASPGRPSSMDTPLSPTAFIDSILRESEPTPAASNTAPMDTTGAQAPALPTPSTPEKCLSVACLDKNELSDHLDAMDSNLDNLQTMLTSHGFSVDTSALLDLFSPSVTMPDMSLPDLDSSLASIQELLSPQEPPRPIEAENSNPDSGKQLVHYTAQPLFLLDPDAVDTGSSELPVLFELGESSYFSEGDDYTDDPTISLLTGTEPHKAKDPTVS

[4] = Luminescence Cell-Based Dose Response HTS to Identify Inhibitors of 5'UTR Stem-Loop Driven Prion Protein mRNA Translation in H4 Neuroglioblastoma Cells. [Related pubchem assays: 1827 (Project Summary), 1813 (Primary HTS)]; assay type: functional
[5] = target: Cytochrome P450 2D6 (Homo sapiens, UniProt P10635);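 further: CYP2D6 member of a cytochrome P450 panel assay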
Sequence of Cytochrome P450 2D6 (P10635 whole entry): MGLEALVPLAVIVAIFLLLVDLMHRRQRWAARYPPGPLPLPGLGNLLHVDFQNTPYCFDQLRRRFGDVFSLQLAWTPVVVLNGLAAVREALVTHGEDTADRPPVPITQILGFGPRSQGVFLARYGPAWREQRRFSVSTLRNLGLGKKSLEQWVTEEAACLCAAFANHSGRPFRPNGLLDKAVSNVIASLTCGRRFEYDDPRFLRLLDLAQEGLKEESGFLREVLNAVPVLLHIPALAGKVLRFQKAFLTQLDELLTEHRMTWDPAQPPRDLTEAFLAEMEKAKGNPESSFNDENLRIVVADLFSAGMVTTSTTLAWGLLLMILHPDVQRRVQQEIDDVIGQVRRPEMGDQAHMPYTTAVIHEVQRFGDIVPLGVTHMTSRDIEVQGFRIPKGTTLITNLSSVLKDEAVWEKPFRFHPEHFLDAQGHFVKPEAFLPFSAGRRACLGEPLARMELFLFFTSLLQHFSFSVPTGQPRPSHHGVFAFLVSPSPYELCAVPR

[6] = inhibitors of intracellular T. cruzi replication, confirmation, NIH3T3 host cells, beta-gal luminescence (AID 2044); assay type: functional, cell-based;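 further: intracellular parasites grown in NIH/3T3 mouse fibroblasts as host cells; luminescent beta-galactosidase reporter signal from transgenic T. cruzi replicating inside host cells; inhibitors lower the luminescence signal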
[7] = cytotoxicity toward NIH3T3 fibroblasts, dose response, counter-screen, cell-based, ATP luminescence, mouse fibroblasts (AID 2010); assay type: functional;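 further: cells exposed to compound for about 90 hours before reading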
[8] = test system: Streptococcus sp. 'group A'; assay: growth inhibition of control SK(-) GAS strain, dose response, counter-screen for streptokinase expression inhibitor project, luminescence, kanamycin, BacTiterGlo, confirmation (AID 1900); assay type: functional, organism-based
[9] = Shn3 3'UTR reporter inhibitors, dose response, cell-based, Clone20 osteoblasts, firefly luciferase, cherry-picked (AID 624132); assay type: functional;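 further: firefly luciferase luminescence from reporter carrying the Shn3 3'UTR in osteoblasts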
[10] = test system: Streptococcus; assay: Group A Streptococcus viability loss, dose response, counter-screen for streptokinase expression inhibitor project, luminescence, BacTiterGlo (AID 1915); assay type: functional, organism-based;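 further: potency for reduction of bacterial viability or growth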
[11] = control 3'UTR Renilla luciferase suppression, dose response, counter-screen for Shn3 inhibitor project, cell-based, Clone20-Shn3RL, cherry-picked (AID 624133); assay type: functional
[12] = target: T2, Streptokinase A (Streptococcus pyogenes serotype M1, UniProt P10520); assay: S. pyogenes streptokinase expression inhibitors, potency, dose response, plasminogen activation absorbance, OD405 (AID 1914); assay type: functional, Streptococcus pyogenes M1 GAS;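 further: secreted streptokinase activity via plasminogen activation per viability signal from cell pellet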
T2 sequence (P10520 whole entry): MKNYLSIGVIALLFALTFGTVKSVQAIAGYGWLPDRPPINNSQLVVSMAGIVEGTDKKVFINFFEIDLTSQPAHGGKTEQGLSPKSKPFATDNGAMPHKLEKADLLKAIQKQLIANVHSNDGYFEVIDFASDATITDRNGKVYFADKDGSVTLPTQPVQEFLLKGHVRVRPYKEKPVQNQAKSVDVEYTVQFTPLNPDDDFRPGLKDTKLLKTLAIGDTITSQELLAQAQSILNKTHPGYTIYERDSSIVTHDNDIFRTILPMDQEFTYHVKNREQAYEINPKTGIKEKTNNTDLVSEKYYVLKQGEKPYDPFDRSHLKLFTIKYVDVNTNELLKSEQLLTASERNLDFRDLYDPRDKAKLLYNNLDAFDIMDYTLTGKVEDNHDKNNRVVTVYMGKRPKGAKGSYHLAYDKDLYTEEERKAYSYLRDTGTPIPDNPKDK

[13] = HepG2 cell cytotoxicity, dose response, cytotoxicity control for Shn3 inhibitor project, CellTiter-Glo, cherry-picked (AID 624134); assay type: functional, cell-based
[14] = target: T3, Zinc finger protein mex-5 (Caenorhabditis elegans, UniProt Q9XUB2); assay: MEX-5/TCR-2 RNA interaction inhibitors, dose response, biochemical, C. elegans, fluorescence polarization (AID 1960)
T3 sequence (Q9XUB2 whole entry): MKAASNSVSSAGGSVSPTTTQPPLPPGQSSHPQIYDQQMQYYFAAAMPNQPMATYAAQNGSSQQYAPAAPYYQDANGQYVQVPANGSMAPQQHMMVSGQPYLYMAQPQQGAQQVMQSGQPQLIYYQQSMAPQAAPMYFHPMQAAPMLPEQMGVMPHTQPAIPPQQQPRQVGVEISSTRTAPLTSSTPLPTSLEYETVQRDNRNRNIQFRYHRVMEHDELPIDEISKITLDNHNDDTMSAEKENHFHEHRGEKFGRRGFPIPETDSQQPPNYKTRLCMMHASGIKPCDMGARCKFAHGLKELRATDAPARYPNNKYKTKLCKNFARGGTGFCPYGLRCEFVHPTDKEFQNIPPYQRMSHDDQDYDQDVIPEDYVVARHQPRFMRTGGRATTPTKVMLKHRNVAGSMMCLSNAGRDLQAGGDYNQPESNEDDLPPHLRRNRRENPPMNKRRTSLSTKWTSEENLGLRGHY

[15] = target: T4, RNA-binding protein pos-1 (Caenorhabditis elegans, UniProt G5EF15); assay: inhibitors of POS-1/mex-3 RNA binding, dose response, biochemical, fluorescence polarization (AID 1964);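 further: purified POS-1 fused to maltose binding protein made in E. coli; potency of compounds blocking POS-1 binding to fluorescent RNA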
T4 sequence (G5EF15 whole entry): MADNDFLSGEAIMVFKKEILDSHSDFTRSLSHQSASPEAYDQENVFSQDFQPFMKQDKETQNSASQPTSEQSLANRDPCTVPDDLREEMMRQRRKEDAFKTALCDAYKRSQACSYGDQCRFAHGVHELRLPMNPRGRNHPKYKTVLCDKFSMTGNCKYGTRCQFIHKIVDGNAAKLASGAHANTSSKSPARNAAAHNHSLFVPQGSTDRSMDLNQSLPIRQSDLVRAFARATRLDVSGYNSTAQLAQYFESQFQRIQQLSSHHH

[16] = microbe, parasite or virus in culture; assay type: functional; conditions: Mycobacterium tuberculosis
[17] = target: T5, Cytochrome P450 1A2 (Homo sapiens, UniProt P05177);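 further: PubChem cytochrome P450 panel assay, CYP1A2 panel member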
T5 sequence (P05177 whole entry): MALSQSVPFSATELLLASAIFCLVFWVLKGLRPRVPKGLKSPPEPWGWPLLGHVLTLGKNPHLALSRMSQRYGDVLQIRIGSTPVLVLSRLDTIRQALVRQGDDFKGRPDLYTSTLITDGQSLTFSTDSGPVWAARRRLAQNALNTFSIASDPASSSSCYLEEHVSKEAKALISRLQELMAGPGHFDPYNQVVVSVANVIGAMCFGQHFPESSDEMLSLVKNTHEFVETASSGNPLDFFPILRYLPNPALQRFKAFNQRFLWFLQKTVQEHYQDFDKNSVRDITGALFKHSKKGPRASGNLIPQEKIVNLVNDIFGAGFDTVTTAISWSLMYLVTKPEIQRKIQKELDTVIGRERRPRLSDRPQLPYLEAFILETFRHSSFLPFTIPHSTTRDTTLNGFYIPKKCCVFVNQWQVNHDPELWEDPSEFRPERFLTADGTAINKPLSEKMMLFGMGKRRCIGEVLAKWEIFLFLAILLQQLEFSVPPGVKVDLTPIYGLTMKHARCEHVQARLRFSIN

[18] = Luminescence Cell-Based Dose Response HTS to Identify Activators of Luciferase Translation or Activity in H4 […] Cells. [Related pubchem assays: 1829 (Project Summary), 1814 (Primary HTS)]; assay type: functional
[19] = target: Cytochrome P450 2C9 (Homo sapiens, UniProt P11712)
Sequence of Cytochrome P450 2C9 (P11712 whole entry): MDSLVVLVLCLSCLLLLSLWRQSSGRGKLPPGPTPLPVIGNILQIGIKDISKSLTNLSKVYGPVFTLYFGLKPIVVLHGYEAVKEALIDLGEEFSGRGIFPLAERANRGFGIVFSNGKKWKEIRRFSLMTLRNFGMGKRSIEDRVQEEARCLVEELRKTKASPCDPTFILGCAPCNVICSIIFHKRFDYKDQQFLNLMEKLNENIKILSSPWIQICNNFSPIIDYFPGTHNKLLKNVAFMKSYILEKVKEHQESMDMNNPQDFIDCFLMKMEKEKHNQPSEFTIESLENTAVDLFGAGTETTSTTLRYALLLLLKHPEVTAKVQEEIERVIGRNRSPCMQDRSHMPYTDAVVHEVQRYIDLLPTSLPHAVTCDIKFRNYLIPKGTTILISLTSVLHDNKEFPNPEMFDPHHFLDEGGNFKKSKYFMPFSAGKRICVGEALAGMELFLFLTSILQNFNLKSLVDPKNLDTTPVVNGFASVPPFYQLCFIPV

[20] = test system: P388/ADR; assay: cells; assay type: functional; conditions: Mus musculus
[21] = test system: SN12K1; assay: cells; assay type: functional; conditions: Homo sapiens
[22] = test system: P388; assay: cells; assay type: functional; conditions: Mus musculus

Compound: COc1ccc(C(C)=O)cc1COC(=O)Cc1nnc(O)c2ccccc12
- IC50 [1]: > 79 µM (inactive)

Compound: c1ccc(-c2cn3nc(-c4ccccc4)sc3n2)cc1
- EC50 [2]: 0.402 µM (inconclusive)
- EC50 [3]: < 0.16 µM (active)
- EC50 [4]: 0.583 µM (active)

Compound: Cc1c(NC(=O)Cn2[nH]c(=O)c3ccccc3c2=O)c(=O)n(-c2ccccc2)n1C
- IC50 [1]: 38.5 µM (inactive)

Compound: O=C(/C=C/c1ccccc1)NC(NC(=S)Nc1ccc(Cl)cc1)C(Cl)(Cl)Cl (stereo not given)
- AC50 [5]: 7.94 µM (inconclusive)
- EC50 [6]: 1.08 µM (active)
- EC50 [7]: > 60 µM (not active)
- EC50 [8]: 5.79 µM (active)
- AC50 [9]: 5.13 µM (active)
- EC50 [10]: > 150 µM (not active)
- AC50 [11]: 30.4 µM (active)
- EC50 [12]: > 150 µM (not active)
- AC50 [13]: 26.7 µM (active)

Compound: CC1=C(C#N)C(=O)N(C)C(=O)/C1=C\N
- EC50 [14]: > 300 µM (not active)
- EC50 [15]: > 300 µM (not active)

Compound: O=C(Cc1ccc([N+](=O)[O-])cc1)Nc1cc(C(F)(F)F)cc(C(F)(F)F)c1
- EC50 [6]: 2.18 µM (active)
- EC50 [7]: 7.77 µM (active)
- CC50 [16]: 8.99 µM (active)

Compound: CC(C)c1nc2oc3ccccc3c(=O)c2c(=O)n1-c1ccccc1
- AC50 [17]: 39.8 µM (inconclusive)
- EC50 [18]: 63.4 µM (active)
- AC50 [19]: 1.78 µM (inconclusive)

Compound: COc1ccccc1OCC(=O)Nc1sc2c(c1C(=O)NCC1CCCO1)CCC2 (stereo not given)
- IC50 [1]: 30.4 µM (inactive)

Compound: CN(C)c1ccc(-c2noc(-c3ccccc3O)n2)cc1
- EC50 [4]: 10.5 µM (inconclusive)

Compound: CC(C)(C)c1nc(SCC(=O)Nc2nc3c(s2)CCCC3)c2ccccc2n1
- EC50 [6]: 1.45 µM (active)
- EC50 [7]: 12.5 µM (active)
- CC50 [16]: 38.7 µM (active)

Compound: COc1cccc(CN2CCN(C(=O)c3cc(-c4cccnc4)nc4ccc(C)cc34)CC2)c1
- IC50 [1]: 11.6 µM (active)

Compound: CN(C)S(=O)(=O)c1cccc(NC(=O)c2cccc(S(=O)(=O)N3CCc4ccccc43)c2)c1
- AC50 [9]: 3.92 µM (active)
- AC50 [11]: 11.7 µM (active)
- AC50 [13]: 60.9 µM (active)

Compound: COc1ccc(C(=O)Nc2nc(-c3ccc([N+](=O)[O-])cc3)c(-c3ccccc3)s2)cc1
- EC50 [14]: > 300 µM (not active)
- EC50 [15]: > 300 µM (not active)

Compound: O=S(=O)(c1ccc(Cl)cc1)c1cc(O)ccc1O
- IC50 [1]: 12.4 µM (active)

Compound: COc1ccc(-c2csc(NC(C)c3nc4cc(Cl)c(N5CCCCC5)cc4n3CCCO)n2)cc1 (stereo not given)
- CC50 [16]: > 40 µM (active)

Compound: COc1ccccc1C(=O)Nc1nc(-c2ccc3c(c2)OCCO3)cs1
- IC50 [1]: > 79 µM (inactive)

Compound: CCOc1cccc(-c2nn3c(-c4ccccn4)nnc3s2)c1
- IC50 [1]: > 79 µM (inactive)

Compound: C=CCN=C(S)N1CCN(c2cccc(C(F)(F)F)c2)CC1
- EC50 [14]: > 300 µM (not active)
- EC50 [15]: > 300 µM (not active)

Compound: O=C(Nc1ccc(N2CCOCC2)c(Cl)c1)c1ccc([N+](=O)[O-])o1
- AC50 [9]: 6.23 µM (active)
- AC50 [11]: 14.7 µM (active)
- AC50 [13]: 24.9 µM (active)

Compound: COc1ccc(C2C(C#N)=C(N)OC3=C2C(=O)CC(C)(C)C3)c(OC)c1OC (stereo not given)
- EC50 [14]: > 300 µM (not active)
- EC50 [15]: > 300 µM (not active)

Compound: CS(=O)(=O)c1ccc(C(=O)OCC(=O)Nc2cccnc2Cl)cc1[N+](=O)[O-]
- AC50 [9]: 9.09 µM (active)
- AC50 [11]: 12.9 µM (active)
- AC50 [13]: > 70 µM (inactive)

Compound: COc1cc2c(C#CCCO)c(-c3ccsc3)oc(=O)c2cc1OC
- IC50 [1]: 20.7 µM (active)

Compound: CC(C)C1C(=O)N(Cc2cn(CCC3OCCO3)nn2)CCS(=O)(=O)N1Cc1ccc(-c2ccc(Cl)cc2)cc1 (stereo not given)
- AC50 [9]: 2.13 µM (active)
- AC50 [11]: 2.83 µM (active)
- AC50 [13]: > 70 µM (inactive)

Compound: c1ccc2cc3c(cc2c1)OP1(Oc2cccc4cccnc24)(O3)Oc2cc3ccccc3cc2O1
- GI50 [20]: 1.42 µM (inactive)
- GI50 [21]: 3.31 µM (inactive)
- GI50 [22]: 1.2 µM (inactive)

Compound: CCOC(=O)C[n+]1ccc2c([nH]c3cc(OC)ccc32)c1C
- GI50 [20]: 35.1 µM (inactive)
- GI50 [21]: > 80.2 µM (inactive)
- GI50 [22]: 38.9 µM (inactive)

Compound: O=[N+]([O-])c1cnccc1-n1nnc2ccccc21
- GI50 [21]: 27.7 µM (inactive)
- GI50 [22]: 7.96 µM (inactive)

Compound: S=C(NCCCCCCNC(=S)Nc1c2ccccc2nc2ccccc12)Nc1c2ccccc2nc2ccccc12
- GI50 [20]: 65 µM (inactive)
- GI50 [21]: 6.22 µM (inactive)
- GI50 [22]: 44.5 µM (inactive)

Compound: O=C(O)C1CCC(=O)N1S(=O)(=O)c1ccccc1 (stereo not given)
- GI50 [20]: > 100 µM (inactive)
- GI50 [21]: > 100 µM (inactive)
- GI50 [22]: > 100 µM (inactive)

Compound: CC1CCCC(C)N1/N=C/c1c[nH]c2ccc(Br)cc12 (stereo not given)
- CC50 [16]: 24.4 µM (active)

Compound: CCc1ccc2oc(-c3cc(/N=C/c4cccc(OC)c4O)ccc3O)nc2c1
- EC50 [6]: 2.45 µM (active)
- EC50 [7]: > 30 µM (not active)
- CC50 [16]: > 40 µM (active)

Compound: COC1=CC(=O)c2ccccc2C1=O [2-Methoxy-1,4-naphthoquinone]
- CC50 [16]: 12.7 µM (active)
